Measured values from patent US20090048258A1, “Amide Compound” (priority 2005, published 2009).
Read-outs that look alike come from different tables or passages of the source.

Target: T1, Human DGAT1 (Homo sapiens, UniProt O75907)
T1 construct: my translation of the primer: M-G-DYKDDDD-GDRGSSRRR) (N); made in house; host or cells: Sf9 insect cells (recombinant baculovirus BAC-DGAT1, pFASTBAC1); microsome fraction
T1 sequence (O75907 1-488): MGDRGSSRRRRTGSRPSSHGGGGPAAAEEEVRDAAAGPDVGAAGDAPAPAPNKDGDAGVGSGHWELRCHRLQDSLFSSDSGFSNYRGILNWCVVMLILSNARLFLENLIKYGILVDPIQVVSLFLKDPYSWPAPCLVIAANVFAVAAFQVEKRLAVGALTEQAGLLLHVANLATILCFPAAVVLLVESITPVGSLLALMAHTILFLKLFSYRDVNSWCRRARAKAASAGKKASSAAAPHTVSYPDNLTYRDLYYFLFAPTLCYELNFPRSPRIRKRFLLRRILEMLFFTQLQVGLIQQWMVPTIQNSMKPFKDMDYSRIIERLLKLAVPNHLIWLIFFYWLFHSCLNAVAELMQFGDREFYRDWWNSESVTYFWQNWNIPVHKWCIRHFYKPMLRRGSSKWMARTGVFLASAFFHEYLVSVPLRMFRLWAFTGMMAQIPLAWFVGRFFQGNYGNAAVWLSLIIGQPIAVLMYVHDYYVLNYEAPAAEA
Test: DGAT inhibitory activity: [14C]-triglyceride synthesis by DGAT1 high expression Sf9 microsome
Type: biochemical
Conditions: 25 μM [14C]-Oleoyl-CoA, 32° C., 15 min, read-out: DGAT inhibitory activity (according to IC50)
Procedure: The primer base sequence is shown below.
The PCR reaction was conducted using a KOD-plus kit (TOYOBO). The obtained PCR product was electrophoresed on agarose gel (1%), the DNA fragment amplified by PCR was recovered from the gel, and then digested with restriction enzymes EcoRI and SpeI. […] Furthermore, using BAC-TO-BAC Baculovirus Expression System (Invitrogen), recombinant baculovirus BAC-DGAT1 was prepared.
SF9 cells were sown at 1×10^6 cells/ml on Sf-900II SEM medium (1 L, Invitrogen) containing 10% fetal calf serum (Trace), 50 mg/L gentamicin (Invitrogen) and 0.1% Pluronic F-68 (Invitrogen), and shaking culture was performed using a 2 L volume Erlenmeyer at 27° C., 100 rpm. After culturing for 24 hr, recombinant baculovirus BAC-DGAT1 (6.7 mL) was added, and the mixture was further cultured for 3 days. The culture medium was centrifuged at 2,000 rpm for 5 min to give virus-infected cells. The infected cells were washed with a phosphate buffered saline (Invitrogen), centrifuged under the same conditions, and the cells were preserved at −80° C. The cryopreserved cells were thawed in ice, suspended in buffer A (50 mM Tris buffer (30 mL, pH 7.4) containing 20% glycerol, 0.15 M NaCl) supplemented with Complete Protease Inhibitor (Boehringer), and ruptured 3 times with a Polytron homogenizer (Kinematica) at 20,000 rpm for 30 sec. The Sf9 microsome fractions were obtained by a conventional method and cryopreserved at −80° C. as a DGAT1 high expression Sf9 microsome.
As a DGAT1 reaction buffer, a solution having a composition of 100 mM Tris-HCl (pH 7.5), 250 mM sucrose, 150 mM MgCl2, 0.01% bovine serum albumin (BSA) was used. […] A mixture of 300 μL of chloroform:methanol (=1:2) was added to the reaction mixture to quench the reaction. The reaction mixture was sufficiently mixed and saline (200 μL) was added to partition the mixture between a chloroform layer (lower layer) and an aqueous layer (upper layer). The chloroform layer (50 μL) was spotted on a thin layer chromatography silica gel plate (TLC plate, Merck) and developed with a solvent (n-hexane:diethyl ether:ethyl acetate:acetic acid=74:15:15:1). The developed TLC plate was dried, contacted with a BAS imaging plate (manufactured by FUJIFILM) and measured with BAS2500 (manufactured by FUJIFILM) 16 hr later to numerically show the amount of [^14C]-triglyceride (TG amount) produced during the reaction. The inhibitory rate was calculated by the following formula:
Inhibitory rate (%)=(1−(TG amount in the case with addition of test compound−blank TG amount)/(control TG amount−blank TG amount))×100
The count of the triglyceride produced in the solution reacted without addition of the test compound was used as a “control TG amount”, and the count of the triglyceride produced in the solution reacted without addition of the test compound and DGAT1 high expression Sf9 microsome was used as a “blank TG amount”.

[1] = Table 1, 25 μM dioleoylglycerol
[2] = Table 2, 25 μM dioleoylglycerol

Compound	IC50 [1] [nM]	IC50 [2] [nM]
CCOc1ccc(C(=O)CCC(=O)Nc2cc(OCCC(C)C)cc(-c3ccccc3)n2)cc1OCC [Example 41, 4-(3,4-diethoxyphenyl)-N-(4-(3-methylbutoxy)-6-phenylpyridin-2-yl)-4-oxobutanamide]	50 to 500	
CCCCOc1cccc(-c2cc(NC(=O)CCC(=O)c3ccc(OCC)c(OCC)c3)nc(-c3ccccc3)c2)c1 [Example 135, N-[4-(3-butoxyphenyl)-6-phenylpyridin-2-yl]-4-(3,4-diethoxyphenyl)-4-oxobutanamide]		500 to 10000
CCOc1ccc(C(=O)CCC(=O)Nc2cc(C(C)(C)C)nn2-c2ccc(C(C)(C)C)cc2)cc1OCC [Example 100, N-[3-tert-butyl-1-(4-tert-butylphenyl)-1H-pyrazol-5-yl]-4-(3,4-diethoxyphenyl)-4-oxobutanamide]		500 to 10000
CCOc1ccc(C(=O)CCC(=O)Nc2cc(-c3ccc(/C=C/C(=O)OC)cc3)cc(-c3ccccc3)n2)cc1OCC [Example 127, methyl (2E)-3-[4-(2-{[4-(3,4-diethoxyphenyl)-4-oxobutanoyl]amino}-6-phenylpyridin-4-yl)phenyl]acrylate]		500 to 10000
COc1ccccc1-c1cc(NC(=O)CCC(=O)c2ccc3c(c2)CCO3)nc(-c2ccccc2)c1 [Example 178, 4-(2,3-dihydro-1-benzofuran-5-yl)-N-[4-(2-methoxyphenyl)-6-phenylpyridin-2-yl]-4-oxobutanamide]		10 to 50
CCOc1ccc(C(=O)CCC(=O)Nc2cc(-c3cc(C)c(O)c(C)c3)cc(-c3ccccc3)n2)cc1OCC [Example 151, 4-(3,4-diethoxyphenyl)-N-[4-(4-hydroxy-3,5-dimethylphenyl)-6-phenylpyridin-2-yl]-4-oxobutanamide]		10 to 50
CCOc1ccc(C(=O)CCC(=O)Nc2cc(-c3ccccc3)c(Cc3ccccc3)s2)cc1Br [Example 98, N-(5-benzyl-4-phenyl-2-thienyl)-4-(3-bromo-4-ethoxyphenyl)-4-oxobutanamide]		50 to 500
CCOc1ccc(C(=O)CCC(=O)Nc2cn(Cc3ccccc3)nc2-c2ccccc2)cc1 [Example 109, N-(1-benzyl-3-phenyl-1H-pyrazol-4-yl)-4-(4-ethoxyphenyl)-4-oxobutanamide]		500 to 10000
CCOC(=O)COc1ccc(C(=O)CCC(=O)Nc2nc(-c3ccccc3)c(Cc3ccccc3)s2)cc1 [Example 37]	50 to 500	
Cc1ccc(C(=O)CCC(=O)Nc2cc(-c3ccccc3)cc(-c3ccccc3)n2)cc1C [Example 111, 4-(3,4-dimethylphenyl)-N-(4,6-diphenylpyridin-2-yl)-4-oxobutanamide]		500 to 10000
CCOc1ccc(C(=O)CCC(=O)Nc2cc(-c3ccccc3)c(Cc3ccccc3)s2)cc1Cl [Example 70, N-(5-benzyl-4-phenyl-2-thienyl)-4-(3-chloro-4-ethoxyphenyl)-4-oxobutanamide]		50 to 500
CCOc1ccc(C(=O)CCC(=O)Nc2cc(-c3ccccc3)cc(-c3ccccc3)n2)cc1 [Example 102, N-(4,6-diphenylpyridin-2-yl)-4-(4-ethoxyphenyl)-4-oxobutanamide]		50 to 500
O=C(CCC(=O)c1ccc2c(c1)CCO2)Nc1cc(-c2ccc(CN3CCOCC3)cc2)cc(-c2ccccc2)n1 [Example 161, 4-(2,3-dihydro-1-benzofuran-5-yl)-N-{4-[4-(morpholin-4-ylmethyl)phenyl]-6-phenylpyridin-2-yl}-4-oxobutanamide]		500 to 10000
CCOc1ccc(C(=O)C(C)CC(=O)Nc2nc(-c3ccccc3)c(Cc3ccccc3)s2)cc1OCC (stereo not drawn) [Example 57, N-(5-benzyl-4-phenyl-1,3-thiazol-2-yl)-4-(3,4-diethoxyphenyl)-3-methyl-4-oxobutanamide]	≤ 10	
CCOc1ccc(C(=O)CCC(=O)Nc2cc(-c3ccc4c(c3)OCO4)cc(-c3ccccc3)n2)cc1OCC [Example 120, N-[4-(1,3-benzodioxol-5-yl)-6-phenylpyridin-2-yl]-4-(3,4-diethoxyphenyl)-4-oxobutanamide]		50 to 500
CCCCOc1cccc(-c2cc(NC(=O)CCC(=O)c3ccc4c(c3)CCO4)nc(-c3ccccc3)c2)c1 [Example 166, N-[4-(3-butoxyphenyl)-6-phenylpyridin-2-yl]-4-(2,3-dihydro-1-benzofuran-5-yl)-4-oxobutanamide]		500 to 10000
CCOc1ccc(C(=O)CCC(=O)Nc2cc(-c3cccc(OC(F)(F)F)c3)cc(-c3ccccc3)n2)cc1OCC [Example 143, 4-(3,4-diethoxyphenyl)-4-oxo-N-{6-phenyl-4-[3-(trifluoromethoxy)phenyl]pyridin-2-yl}butanamide]		50 to 500
CCOc1ccc(C(=O)CCC(=O)Nc2cc(-c3ccc(CCC(=O)OC)cc3)cc(-c3ccccc3)n2)cc1OCC [Example 126, methyl 3-[4-(2-{[4-(3,4-diethoxyphenyl)-4-oxobutanoyl]amino}-6-phenylpyridin-4-yl)phenyl]propanoate]		50 to 500

Second part, the compound after the results:

IC50 [1] [nM]	IC50 [2] [nM]	Compound
50 to 500		CCOC(=O)c1sc(NC(=O)CCC(=O)c2ccc(OCC)c(OCC)c2)cc1-c1ccccc1 [Example 52, ethyl 5-{[4-(3,4-diethoxyphenyl)-4-oxobutanoyl]amino}-3-phenylthiophene-2-carboxylate]
	≤ 10	CCOc1ccc(C(=O)CCC(=O)Nc2cc(-c3ccccc3)c3ccccc3n2)cc1OCC [Example 74, 4-(3,4-diethoxyphenyl)-4-oxo-N-(4-phenylquinolin-2-yl)butanamide]
	500 to 10000	CCCCCC/C=C/c1cc(NC(=O)CCC(=O)c2ccc(OCC)c(OCC)c2)nc(-c2ccccc2)c1 [Example 152, 4-(3,4-diethoxyphenyl)-N-{4-[(1E)-octa-1-en-1-yl]-6-phenylpyridin-2-yl}-4-oxobutanamide]
50 to 500		CCOc1ccc(C(=O)CCC(=O)Nc2cc(-c3ccc(OCOC)cc3)c3ccccc3n2)cc1OCC [Example 15, 4-(3,4-diethoxyphenyl)-N-{4-[4-(methoxymethoxy)phenyl]quinolin-2-yl}-4-oxobutanamide]
500 to 10000		CCOc1ccc(C(=O)CCC(=O)Nc2ccc(CCC(=O)O)c(-c3ccccc3)c2)cc1OCC [Example 10, 3-(5-{[4-(3,4-diethoxyphenyl)-4-oxobutanoyl]amino}biphenyl-2-yl)propanoic acid]
≤ 10		CCOc1ccc(C(=O)CCC(=O)Nc2cc(-c3ccc(O)cc3)c3ccccc3n2)cc1OCC [Example 22, 4-(3,4-diethoxyphenyl)-N-[4-(4-hydroxyphenyl)quinolin-2-yl]-4-oxobutanamide]
	10 to 50	CCOc1ccc(C(=O)CCC(=O)Nc2cc(-c3cccc(OC)c3)c3ccccc3n2)cc1OCC [Example 80, 4-(3,4-diethoxyphenyl)-N-[4-(3-methoxyphenyl)quinolin-2-yl]-4-oxobutanamide]
	≤ 10	CCOc1ccc(C(=O)CCC(=O)Nc2cc(-c3ccccc3O)cc(-c3ccccc3)n2)cc1OCC [Example 145, 4-(3,4-diethoxyphenyl)-N-[4-(2-hydroxyphenyl)-6-phenylpyridin-2-yl]-4-oxobutanamide]
50 to 500		CCOc1ccc(C(=O)CCC(=O)Nc2ncc(-c3ccccc3)cc2-c2ccccc2)cc1OCC [Example 13, 4-(3,4-diethoxyphenyl)-N-(3,5-diphenylpyridin-2-yl)-4-oxobutanamide]
